Where two headings read alike, the source gives them in different places. Where a SMILES comes first, the peptide text is derived from it. Bridges are numbered along the chain shown (N, C = ends).
How the values were obtained:
Candida cells = assay: Fungicide effect, spotting of treated cells on solid YPD medium; assay type: cell-based, Candida species; settings: 1.56–25 µM, 24 h treatment, dilutions spotted on solid YPD medium, 48 h, 30 °C
Description: To determine whether the inhibitory effect of the peptides is generated by fungistatic or fungicide action, the Candida cells were treated with the peptides in the same concentration range (1.56–25 µM) as in the growth inhibition assay. After 24 h 5 µL sample from the untreated control cells and from the peptide treated cells was added to 95 µL water and diluted further 10- and 100-fold. From each dilution, 5 µL was placed on solid medium and the growth of the control and peptide treated cells was compared after 48 h incubation at 30 °C. This assay confirmed that all the effective peptides, NCR335N1–19, NCR335N7–21, NCR335C1–33, NCR335C13–33, NCR335C17–33, NCR169C17–38, NCR169C17–38ox, NCR169C17–38W10,20/A provoked growth inhibition through fungicidal actions (Figure A2). The fungicide concentrations, required for the complete elimination of the Candida cells, were either equal to or twice higher than the minimum inhibitory concentrations presented in Table 2.
The same initial experimental setting was used to determine the fungicide effect of the peptides. Five µL samples were taken from the cultures after 24 h and were added to 95 µL sterile distilled water, and diluted to 10- and 100-fold (indicated as 10^4, 10^3 and 10^2 based on the cell number of the control culture in Figure A2). Five µL from each dilution were placed on solid YPD medium and the growth of the strains was detected after 48 h incubation at 30 °C.

Candida auris 0381 = assay: microbe, parasite or virus in culture; assay type: cell-based; settings: micro-dilution, YNB medium, 4 × 10^4 cell/mL, 48 h, 30 °C, OD 620 nm; MIC = growth inhibition ≥90%; peptides 25 to 1.56 µM, fluconazole 200 to 0.78 µM; three biological repeats in triplicates; further: key: -: no growth inhibition was observed
Description: (§1) The antifungal activity of all the 14 peptides was tested against the following opportunistic human pathogen Candida species and strains: C. albicans strains ATCC 10231, SC 5314 and SZMC 1458, C. auris 0381, C. glabrata CBS 138, C. parapsilosis CBS 604 and C. tropicalis CBS 94.
(§2) All the Candida strains (Table 4) were grown overnight in YPD medium (1% pepton, 1% dextrose, 0.5% yeast extract) at 30 °C in water bath shaker prior to each experiments. The cells were harvested by centrifugation (5 min, 3000× g) washed twice with sterile distilled water and suspended in 5-fold diluted Difco Yeast Nitrogen Base w/o Amino Acids medium (Becton, Dickinson and Company, Sparks, MD, USA) supplemented with 1% dextrose, referred to as YNB medium in the text. Cells were counted in Bürker chamber and diluted to the proper concentration.
(§3) The growth inhibition of the peptides listed in Table 1 was tested in 96-well microtiter plates on Candida strains. The minimal inhibitory concentration (MIC) was determined with the micro-dilution method by adding 5 µL serially two-fold-diluted peptide solution to 95 µL of cell suspension (4 × 10^4 cell/mL) in YNB medium. After 48 h of incubation at 30 °C the optical density of the cultures was measured at 620 nm in SPECTROstar Nano plate reader (BMG LabTech, Offenburg, Germany). Minimal inhibitory concentration was defined as growth inhibition ≥90% compared to 100% growth of the untreated control. The experiments were carried out in three biological repeats always in triplicates.

[1] = system: Candida tropicalis CBS 94; assay: microbe, parasite or virus in culture; assay type: cell-based; settings: micro-dilution, YNB medium, 4 × 10^4 cell/mL, 48 h, 30 °C, OD 620 nm; MIC = growth inhibition ≥90%; peptides 25 to 1.56 µM, fluconazole 200 to 0.78 µM; three biological repeats in triplicates; further: key: -: no growth inhibition was observed
Description: as §1, §2, §3

[2] = system: C. albicans SZMC 1458 biofilm; assay: Biofilm formation assay, XTT; assay type: cell-based, Candida albicans; settings: 72 h, 37 °C, 5 % CO2, 1/8AIM medium, p ≤ 0.0001
[3] = system: C. tropicalis CBS 94 biofilm; assay: Biofilm formation assay, XTT; assay type: cell-based, Candida tropicalis; settings: 72 h, 37 °C, 5 % CO2, 1/8AIM medium, p ≤ 0.0001
[4] = system: C. albicans SC 5314 biofilm; assay: Biofilm formation assay, XTT; assay type: cell-based, Candida albicans; settings: 72 h, 37 °C, 5 % CO2, 1/8AIM medium, p ≤ 0.0001
[5] = system: C. albicans ATCC 10231 biofilm; assay: Biofilm formation assay, XTT; assay type: cell-based, Candida albicans; settings: 72 h, 37 °C, 5 % CO2, 1/8AIM medium, p ≤ 0.0001
[6] = system: Candida parapsilosis CBS 604; assay: microbe, parasite or virus in culture; assay type: cell-based; settings: micro-dilution, YNB medium, 4 × 10^4 cell/mL, 48 h, 30 °C, OD 620 nm; MIC = growth inhibition ≥90%; peptides 25 to 1.56 µM, fluconazole 200 to 0.78 µM; three biological repeats in triplicates; further: key: -: no growth inhibition was observed
Description: as §1, §2, §3

C. albicans ATCC 10231 = assay: Yeast-hypha morphology, bright-field microscopy; assay type: cell-based, Candida albicans; settings: 3.12 µM peptide, 48 h, 1/8AIM medium, sub-lethal concentration
From the text: (§4) As hyphae formation is an important virulence factor, we investigated how the broad range activity peptides, NCR335C17–33, NCR169C17–38 and NCR169C17–38ox affect the morphological switch of C. albicans ATCC 10231 and C. tropicalis between the hyphal and yeast growth forms at sub-lethal concentrations (Figure 1). […] However, not only the morphology changed, but the cell number also declined, particularly in the latter case.
(§5) To induce morphological change of C. albicans and C. tropicalis YNB medium was changed for eight-fold diluted AIM-V+AlbuMAX (BSA) medium (Gibco, Thermo Fisher Scientific, Dublin, Ireland) referred to as 1/8AIM in the text.
(§6) Bright-field microscopy. The morphology of C. albicans ATCC 10231 and C. tropicalis cells was examined after 48 h incubation with the selected peptides (NCR335C17–33 and NCR169C17–38) by Zeiss Axio Observer inverted microscope (Carl Zeiss AG, Jena, Germany). The concentration of the NCR335C17–33 was 1.56 and 3.12 µM, NCR169C17–38 1.56 or 3.12 µM while NCR169C17–38ox 0.78 or 3.12 µM, the initial cell concentration was set to 4 × 10^4 cell/mL. Cells cultivated without peptides were used as control.

C. auris = settings: C. auris; for reduction of MIC in the synergistic combination: compared with single use
Description: Amphotericin B, due to its high toxicity was not included in this assay.
The effects of the different combinations of fluconazole and NCR335C17–33, NCR169C17–38 or NCR169C17–38ox were determined by standard checkerboard titration method. The fluconazole was tested in a concentration range from 6.25 to 75 µM, NCR169C17–38 and NCR169C17–38ox from 0.78 to 12.50 µM, NCR335C17–33 from 1.56 to 25 µM. The initial cell concentration in each well was 4 × 10^4 cell/mL. After the incubation for 72 h at 30 °C, the optical density of the cultures was detected at 620 nm in SPECTROstar Nano plate reader (BMG LabTech, Offenburg, Germany). The inhibitory concentrations were determined for each compound alone and in combinations. The experiments were carried out at least three times. The effect of combinations was evaluated by fractional inhibitory concentration (FIC) index. FIC = FICA + FICB. FICA = (MICA in combination)/(MICA alone); FICB = (MICB in combination)/(MICB alone)

C. tropicalis CBS 94 = assay: Yeast-hypha morphology, bright-field microscopy; assay type: cell-based, Candida tropicalis; settings: 0.78 µM peptide, 48 h, 1/8AIM medium
From the text: as §4, §5, §6

Candida albicans = settings: cited from earlier work
From the text: In addition to bacteria, NCRs can also kill fungi. […] However, we noticed that, unlike the full sequence of NCR169, its C-terminal half was highly cationic (pI: 10.1) leading us to assume that this part may have antimicrobial activity.

CC[C@H](C)[C@H](NC(=O)[C@@H]1CCCN1C(=O)[C@@H](NC(=O)[C@H](CS)NC(=O)[C@H](Cc1ccc(O)cc1)NC(=O)[C@H](CO)NC(=O)[C@H](CCCCN)NC(=O)[C@H](CCCNC(=N)N)NC(=O)[C@H](CS)NC(=O)[C@H](CCCNC(=N)N)NC(=O)[C@@H](NC(=O)[C@H](CC(N)=O)NC(=O)[C@H](C)NC(=O)[C@H](CCCNC(=N)N)NC(=O)[C@H](CCCNC(=N)N)NC(=O)[C@H](CC(C)C)NC(=O)[C@H](CCCCN)NC(=O)[C@@H]1CCCN1C(=O)[C@H](CS)NC(=O)[C@H](CC(=O)O)NC(=O)[C@H](CCCCN)NC(=O)[C@H](CC(N)=O)NC(=O)[C@@H](NC(=O)[C@H](CCCCN)NC(=O)[C@H](CS)NC(=O)[C@H](CC(=O)O)NC(=O)[C@H](CO)NC(=O)[C@H](CC(C)C)NC(=O)[C@@H](NC(=O)[C@H](CC(C)C)NC(=O)[C@H](CO)NC(=O)[C@H](Cc1ccccc1)NC(=O)[C@@H](N)Cc1c[nH]cn1)[C@@H](C)CC)[C@@H](C)O)C(C)C)C(C)C)C(N)=O [NCR335C1–33] (H-HFSLILSDCKTNKDCPKLRRANVRCRKSYCVPI-NH2; N-terminus assumed)
growth inhibition by fungistatic or fungicide action (Candida cells): fungicidal | Minimal inhibitory concentration, Cau 0381 (Candida auris 0381): - | Minimal inhibitory concentration, Ct CBS 94 [1]: -

CC[C@H](C)[C@H](NC(=O)[C@H](CCCCN)NC(=O)[C@H](Cc1ccccc1)NC(=O)[C@H](CC(C)C)NC(=O)[C@@H]1CCCN1C(=O)[C@H](CCCCN)NC(=O)[C@H](CCCCN)NC(=O)[C@H](CO)NC(=O)[C@@H](N)CCCCN)C(=O)N[C@@H](C)C(=O)N[C@@H](CCCCN)C(=O)N[C@@H](CS)C(=O)N[C@H](C(=O)N[C@@H](CCC(=O)O)C(=O)N[C@@H](CC(N)=O)C(=O)N[C@H](C(=O)N[C@@H](CS)C(=O)N[C@H](C(=O)N[C@@H](CC(C)C)C(=O)N[C@@H](C)C(=O)N[C@@H](Cc1ccc(O)cc1)C(=O)N[C@@H](CCCCN)C(N)=O)C(C)C)C(C)C)C(C)C [NCR169C17–38W10,20/A] (H-KSKKPLFKIAKCVENVCVLAYK-NH2; N-terminus assumed)
concentration significantly inhibiting biofilm formation, relative to MIC [2]: MIC | concentration significantly inhibiting biofilm formation, relative to MIC [3]: one-fourth of the MIC | concentration significantly inhibiting biofilm formation, relative to MIC [4]: half MIC | growth inhibition by fungistatic or fungicide action (Candida cells): fungicidal | concentration significantly inhibiting biofilm formation, relative to MIC [5]: half MIC | Minimal inhibitory concentration, Cau 0381 (Candida auris 0381): - | Minimal inhibitory concentration, Cp CBS 604 [6]: -

CC[C@H](C)[C@H](NC(=O)[C@H](CCCCN)NC(=O)[C@H](Cc1ccccc1)NC(=O)[C@H](CC(C)C)NC(=O)[C@@H]1CCCN1C(=O)[C@H](CCCCN)NC(=O)[C@H](CCCCN)NC(=O)[C@H](CO)NC(=O)[C@@H](N)CCCCN)C(=O)N[C@@H](Cc1c[nH]c2ccccc12)C(=O)N[C@@H](CCCCN)C(=O)N[C@H]1CSSC[C@@H](C(=O)N[C@H](C(=O)N[C@@H](CC(C)C)C(=O)N[C@@H](Cc2c[nH]c3ccccc23)C(=O)N[C@@H](Cc2ccc(O)cc2)C(=O)N[C@@H](CCCCN)C(N)=O)C(C)C)NC(=O)[C@H](C(C)C)NC(=O)[C@H](CC(N)=O)NC(=O)[C@H](CCC(=O)O)NC(=O)[C@H](C(C)C)NC1=O [NCR169C17–38ox] (H-KSKKPLFKIWKCVENVCVLWYK-NH2; disulfide 12-17; N-terminus assumed)
concentration significantly inhibiting biofilm formation, relative to MIC [2]: half MIC | effect on hyphal growth (C. albicans ATCC 10231): completely inhibited the hyphal growth | concentration significantly inhibiting biofilm formation, relative to MIC [3]: half MIC | concentration significantly inhibiting biofilm formation, relative to MIC [4]: one-fourth of the MIC | growth inhibition by fungistatic or fungicide action (Candida cells): fungicidal | Action (C. auris; NCR169C17–38 + NCR169C17–38ox): Synergism | reduction of MIC in the synergistic combination (C. auris; NCR169C17–38 + NCR169C17–38ox): 8 × | Action (C. auris; fluconazole + NCR169C17–38ox): Synergism | reduction of MIC in the synergistic combination (C. auris; fluconazole + NCR169C17–38ox): 8 × | concentration significantly inhibiting biofilm formation, relative to MIC [5]: MIC | Minimal inhibitory concentration, Cp CBS 604 [6]: - | effect on hyphal/yeast growth form (C. tropicalis CBS 94): the only form of the culture

EDIGHIKYCGIVDDCYKSKKPLFKIWKCVENVCVLWYK [NCR169]
activity against C. albicans (Candida albicans; in the studied concentration range): inactive

RLNTTFRPLNFKMLRFWGQNRNIMKHRGQKVHFSLILSDCKTNKDCPKLRRANVRCRKSYCVPI [NCR335, 64 amino acid long cationic nodule specific cysteine-rich peptide of Medicago truncatula]
MIC (Candida albicans; C. albicans): 1.4 to 2.5 µM | minimal inhibitory concentrations (MIC), range over the listed cationic NCR peptides (Candida albicans; C. albicans): 1.4 to 10 µM

From paper PMC8037406, “Symbiotic NCR Peptide Fragments Affect the Viability, Morphology and Biofilm Formation of Candida Species” (International Journal of Molecular Sciences, 2021)
